# Assay results reported in patent US8883745B2, “C—glycolipids with enhanced Th-1 profile” (New York University, priority 2006, dated 2014).
# Legend:
# Type in all cases: in vivo
# IL-4 [1] = test: IL-4 levels in sera upon i.v. glycolipid administration to BALB/c mice (ELISA); set-up: unit not given here
# Description: (§1) Five- to six-week-old female C57BL/6 mice and BALB/c mice were purchased from Taconic. Each glycolipid was stored at 1 mg/ml in 100% DMSO. Mice were injected intravenously with 1 μg of each glyocolipid diluted in 200 μL sterile phosphate buffered saline (PBS). At indicated time points, sera were collected from each animal, and concentrations of IFN-γ, IL-4, and IL-12 in the sera were evaluated by enzyme-linked immunosorbent assay (ELISA). Serum concentrations of IFN-γ, IL-4, and IL-12 were evaluated using an ELISA kit (eBioscience, San Diego, Calif.). Briefly, 96 well flat-bottom ELISA plates (NUNC) were coated with capture antibody according to the manufacture's recommendation and incubated overnight at 4° C. The plates were washed with PBS+0.05% Tween 20 (PBS-T), then incubated with manufacturer provided blocking solution for 1 hr at room temperature to block non-specific binding sites. After washing with PBS-T, sera diluted 1:10 was added to the wells and incubated for 2 hrs at room temperature. Plates were then incubated at room temperature for 1 hr with biotintylated detection antibody, washed, incubated with avidin conjugated to horse radish peroxidase (HRP) for 30 min at room temperature, washed, and finally incubated with tetramethylbenzidine substrate solution in the dark for 10 minutes at room temperature. The antibodies, avidin-HRP, and substrate solution were all diluted according to the manufacture's recommendation. Reactions were stopped with 2.0N sulfuric acid and the cytokine concentration in each well was determined by comparing the absorbance at 450 nm in each well to known standards. The levels of Th1- and Th2-type cytokines were determined in two different genetic backgrounds, i.e., in C57BL/6 mice and BALB/c mice. The following compounds were administered: A=compound (A-1 trans-conformer), B=compound (A-2), C=compound (A-3), D=compound (A-4), E=compound (A-5), Z=control (PBS alone), CRONY=α-C-GalCer, KRN=α-GalCer, GCK109 (A-1 trans-conformer), GCK151 (A-1 cis-conformer), GCK152 (A-7). The levels of cytokines were measured at 0, 2, 6, 12, 24, 48, and 72 hours after the compound administration. The levels of Th1-type cytokines IFN-γ and IL-12 are summarized in FIGS. 2A-C and 3A-C, respectively. Table 7 provides IFN-γ/IL-4 and IL-12/IL-4 ratios for various compounds, which can be used as indicators of their ability to selectively stimulate Th1-type immune responses.
# IL-4 [2] = test: IL-4 levels in sera upon i.v. glycolipid administration to C57BL/6 mice (ELISA); set-up: unit not given here
# Description: as §1
# IL-12 = IL-12 levels in sera upon i.v. glycolipid administration to C57BL/6 mice (ELISA); set-up: IL-12 levels, test 1 / IL-12 levels, test 2 / IL-12 levels, average / IL-12 levels, Total: unit not given here
# Description: as §1
# IFN-γ = IFN-γ levels in sera upon i.v. glycolipid administration to BALB/c mice (ELISA); set-up: IFN-γ levels, test 1 / IFN-γ levels, test 2 / IFN-γ levels, average / IFN-γ levels, Total: unit not given here
# Description: as §1
smiles,measurement,setting,value
CCCCCCCCCCCCCC[C@@H](O)[C@@H](O)[C@H](CC[C@H]1O[C@H](CO)[C@H](O)[C@H](O)[C@H]1O)NC(=O)CCCCCCCCCCCCCCCCCCCOCCCCC [A-5],"IL-4 level, average",IL-4 [1]; hour 0,27
same,"IL-4 level, test 1",IL-4 [1]; hour 0,27
same,"IL-4 level, test 2",IL-4 [1]; hour 0,27
same,"IL-4 level, average",IL-4 [1]; hour 2,156
same,"IL-4 level, test 1",IL-4 [1]; hour 2,122
same,"IL-4 level, test 2",IL-4 [1]; hour 2,190
same,"IL-4 level, average",IL-4 [1]; hour 6,67.5
same,"IL-4 level, test 1",IL-4 [1]; hour 6,60
same,"IL-4 level, test 2",IL-4 [1]; hour 6,75
same,"IL-4 level, average",IL-4 [1]; hour 12,45.5
same,"IL-4 level, test 1",IL-4 [1]; hour 12,48
same,"IL-4 level, test 2",IL-4 [1]; hour 12,43
same,"IL-4 level, average",IL-4 [1]; hour 24,41
same,"IL-4 level, test 1",IL-4 [1]; hour 24,39
same,"IL-4 level, test 2",IL-4 [1]; hour 24,43
same,"IL-4 level, average",IL-4 [1]; hour 48,40
same,"IL-4 level, test 1",IL-4 [1]; hour 48,41
same,"IL-4 level, test 2",IL-4 [1]; hour 48,39
same,"IL-4 level, average",IL-4 [1]; hour 72,3.4
same,"IL-4 level, test 1",IL-4 [1]; hour 72,3.4
same,"IL-4 level, test 2",IL-4 [1]; hour 72,3.4
same,"IL-4 level, Total",IL-4 [1]; total over hours 0-72,382
same,"IL-4 level, average",IL-4 [2]; hour 0,46
same,"IL-4 level, test 1",IL-4 [2]; hour 0,46
same,"IL-4 level, test 2",IL-4 [2]; hour 0,46
same,"IL-4 level, average",IL-4 [2]; hour 2,308
same,"IL-4 level, test 1",IL-4 [2]; hour 2,283
same,"IL-4 level, test 2",IL-4 [2]; hour 2,333
same,"IL-4 level, average",IL-4 [2]; hour 6,89
same,"IL-4 level, test 1",IL-4 [2]; hour 6,75
same,"IL-4 level, test 2",IL-4 [2]; hour 6,103
same,"IL-4 level, average",IL-4 [2]; hour 12,45
same,"IL-4 level, test 1",IL-4 [2]; hour 12,42
same,"IL-4 level, test 2",IL-4 [2]; hour 12,48
same,"IL-4 level, average",IL-4 [2]; hour 24,50
same,"IL-4 level, test 1",IL-4 [2]; hour 24,46
same,"IL-4 level, test 2",IL-4 [2]; hour 24,54
same,"IL-4 level, average",IL-4 [2]; hour 48,46
same,"IL-4 level, test 1",IL-4 [2]; hour 48,44
same,"IL-4 level, test 2",IL-4 [2]; hour 48,48
same,"IL-4 level, average",IL-4 [2]; hour 72,64.5
same,"IL-4 level, test 1",IL-4 [2]; hour 72,69
same,"IL-4 level, test 2",IL-4 [2]; hour 72,60
same,"IL-4 level, Total",IL-4 [2]; total over hours 0-72,649
same,IL-12/IL-4 (B6),"IL-12; C57BL/6, ratio calculated from Tables 1-6",3.4
same,"IL-12 levels, average","IL-12; C57BL/6, serum, hour 0",5
same,"IL-12 levels, test 1","IL-12; C57BL/6, serum, hour 0",5
same,"IL-12 levels, test 2","IL-12; C57BL/6, serum, hour 0",5
same,"IL-12 levels, average","IL-12; C57BL/6, serum, hour 2",115.5
same,"IL-12 levels, test 1","IL-12; C57BL/6, serum, hour 2",117
same,"IL-12 levels, test 2","IL-12; C57BL/6, serum, hour 2",114
same,"IL-12 levels, average","IL-12; C57BL/6, serum, hour 6",1346.5
same,"IL-12 levels, test 1","IL-12; C57BL/6, serum, hour 6",1351
same,"IL-12 levels, test 2","IL-12; C57BL/6, serum, hour 6",1342
same,"IL-12 levels, average","IL-12; C57BL/6, serum, hour 12",518.5
same,"IL-12 levels, test 1","IL-12; C57BL/6, serum, hour 12",535
same,"IL-12 levels, test 2","IL-12; C57BL/6, serum, hour 12",502
same,"IL-12 levels, average","IL-12; C57BL/6, serum, hour 24",87
same,"IL-12 levels, test 1","IL-12; C57BL/6, serum, hour 24",96
same,"IL-12 levels, test 2","IL-12; C57BL/6, serum, hour 24",78
same,"IL-12 levels, average","IL-12; C57BL/6, serum, hour 48",58
same,"IL-12 levels, test 1","IL-12; C57BL/6, serum, hour 48",52
same,"IL-12 levels, test 2","IL-12; C57BL/6, serum, hour 48",64
same,"IL-12 levels, average","IL-12; C57BL/6, serum, hour 72",49.5
same,"IL-12 levels, test 1","IL-12; C57BL/6, serum, hour 72",46
same,"IL-12 levels, test 2","IL-12; C57BL/6, serum, hour 72",53
same,"IL-12 levels, Total","IL-12; C57BL/6, serum, total over hours 0-72",2182
same,IFN-γ/IL-4 (BALB/c),"IFN-γ; BALB/c, ratio calculated from Tables 1-6",39
same,"IFN-γ levels, average","IFN-γ; BALB/c, serum, hour 0",2.5
same,"IFN-γ levels, test 1","IFN-γ; BALB/c, serum, hour 0",27
same,"IFN-γ levels, test 2","IFN-γ; BALB/c, serum, hour 0",27
same,"IFN-γ levels, average","IFN-γ; BALB/c, serum, hour 2",101
same,"IFN-γ levels, test 1","IFN-γ; BALB/c, serum, hour 2",118
same,"IFN-γ levels, test 2","IFN-γ; BALB/c, serum, hour 2",84
same,"IFN-γ levels, average","IFN-γ; BALB/c, serum, hour 6",1665
same,"IFN-γ levels, test 1","IFN-γ; BALB/c, serum, hour 6",1650
same,"IFN-γ levels, test 2","IFN-γ; BALB/c, serum, hour 6",1680
same,"IFN-γ levels, average","IFN-γ; BALB/c, serum, hour 12",3566
same,"IFN-γ levels, test 1","IFN-γ; BALB/c, serum, hour 12",4018
same,"IFN-γ levels, test 2","IFN-γ; BALB/c, serum, hour 12",3114
same,"IFN-γ levels, average","IFN-γ; BALB/c, serum, hour 24",9104.5
same,"IFN-γ levels, test 1","IFN-γ; BALB/c, serum, hour 24",8738
same,"IFN-γ levels, test 2","IFN-γ; BALB/c, serum, hour 24",9471
same,"IFN-γ levels, average","IFN-γ; BALB/c, serum, hour 48",425.5
same,"IFN-γ levels, test 1","IFN-γ; BALB/c, serum, hour 48",453
same,"IFN-γ levels, test 2","IFN-γ; BALB/c, serum, hour 48",398
same,"IFN-γ levels, average","IFN-γ; BALB/c, serum, hour 72",56
same,"IFN-γ levels, test 1","IFN-γ; BALB/c, serum, hour 72",54
same,"IFN-γ levels, test 2","IFN-γ; BALB/c, serum, hour 72",58
same,"IFN-γ levels, Total","IFN-γ; BALB/c, serum, total over hours 0-72",14922
same,effect: higher/extended IFN-γ and IL-12 with much lower IL-4 compared to α-GalCer (KRN),"IFN-γ; C57BL/6 and BALB/c mice, 1 μg i.v.",particularly pronounced
